# Assay results taken from patent US10294202B2, “Pyrrolidinones as herbicides” (FMC Corporation, priority 2013, dated 2019).
# Key:
# [1] = system: wheat; assay: Test A pre-/postemergence herbicide test; format: in vivo, Triticum aestivum
# In short: (§1)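 Visual 0–100 ratings (100 = complete control) made about 10 days after treatment, greenhouse-held plants compared with untreated controls. Treatments: postemergence sprays on one- to two-leaf plants (2–10 cm tall) and preemergence directed soil sprays after planting in loam–sand, chemicals formulated in non-phytotoxic solvent containing surfactant.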
# [2] = system: barnyardgrass; assay: Test A pre-/postemergence herbicide test; format: in vivo, Echinochloa crus-galli
# In short: as §1
# [3] = system: morningglory; assay: Test A pre-/postemergence herbicide test; format: in vivo, Ipomoea spp.
# In short: as §1
# [4] = system: corn; assay: Test A pre-/postemergence herbicide test; format: in vivo, Zea mays
# In short: as §1
# [5] = system: rice; assay: Test B flooded paddy test; format: in vivo, Oryza sativa; conditions: Flood, scale of 0 to 100 where 0 is no effect and 100 is complete control
# In short: (§2)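 Plants grown to 2-leaf stage; pots flooded 3 cm above soil and compound applied directly into paddy water, depth held throughout. Visual rating against untreated controls after 13 to 15 days in greenhouse, 0 (no effect) to 100 (complete control).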
# [6] = system: sedge, umbrella; assay: Test B flooded paddy test; format: in vivo, Cyperus difformis; conditions: Flood, scale of 0 to 100 where 0 is no effect and 100 is complete control
# In short: as §2
# [7] = system: giant foxtail; assay: Test A pre-/postemergence herbicide test; format: in vivo, Setaria faberii
# In short: as §1
# [8] = system: barnyardgrass; assay: Test B flooded paddy test; format: in vivo, Echinochloa crus-galli; conditions: Flood, scale of 0 to 100 where 0 is no effect and 100 is complete control
# In short: as §2
# [9] = system: pigweed; assay: Test A pre-/postemergence herbicide test; format: in vivo, Amaranthus retroflexus
# In short: as §1
# [10] = system: crabgrass, large; assay: Test A pre-/postemergence herbicide test; format: in vivo, Digitaria sanguinalis
# In short: as §1
# [11] = system: velvetleaf; assay: Test A pre-/postemergence herbicide test; format: in vivo, Abutilon theophrasti
# In short: as §1
# [12] = system: ducksalad; assay: Test B flooded paddy test; format: in vivo, Heteranthera limosa; conditions: Flood, scale of 0 to 100 where 0 is no effect and 100 is complete control
# In short: as §2
# [13] = 125 g ai/ha, visual rating, 0 to 100 scale, 0 no effect, 100 complete control, approximately 10 days, preemergence
# [14] = Postemergence, 125 g ai/ha, 0 to 100 scale, 0 is no effect, 100 is complete control
# [15] = preemergence, 500 g ai/ha, 0 to 100 scale, 0 is no effect and 100 is complete control
# [16] = Postemergence, 125 g ai/ha, 0 to 100 scale, 0 no effect, 100 complete control
# [17] = Postemergence, 500 g ai/ha, 0 to 100 scale (0 no effect, 100 complete control)
# [18] = Preemergence, 125 g ai/ha, visual rating on 0 to 100 scale (0 no effect, 100 complete control)
# [19] = preemergence, 500 g ai/ha, 0 to 100 scale
structure (smiles),measurement,setting,value
COc1cc(C2CNC(=O)C2C(=O)Nc2cccc(F)c2F)ccc1F (racemic) [Compound 195],"Plant response rating, Wheat",[1]; [13],0
same,"Plant response rating, Wheat",[1]; [14],0
same,"Wheat plant response rating (0 to 100 scale, 0 is no effect, 100 is complete control)","[1]; Postemergence, 500 g ai/ha",30
same,"Plant response rating, Wheat",[1]; [15],0
same,"Plant response rating, Barnyardgrass",[2]; [13],30
same,"Plant response rating, Barnyardgrass",[2]; [14],80
same,"Barnyardgrass plant response rating (0 to 100 scale, 0 is no effect, 100 is complete control)","[2]; Postemergence, 500 g ai/ha",90
same,"Plant response rating, Barnyardgrass",[2]; [15],90
same,"Plant response rating, Morningglory",[3]; [13],0
same,"Plant response rating, Morningglory",[3]; [14],0
same,"Morningglory plant response rating (0 to 100 scale, 0 is no effect, 100 is complete control)","[3]; Postemergence, 500 g ai/ha",0
same,"Plant response rating, Morningglory",[3]; [15],0
same,"Plant response rating, Corn",[4]; [13],0
same,"Plant response rating, Corn",[4]; [14],0
same,"Corn plant response rating (0 to 100 scale, 0 is no effect, 100 is complete control)","[4]; Postemergence, 500 g ai/ha",0
same,"Plant response rating, Corn",[4]; [15],0
same,"Plant response rating, Rice",[5]; 250 g ai/ha,0
same,"Plant response rating, Rice",[5]; 1000 g ai/ha,15
same,"Plant response rating, Sedge, Umbrella",[6]; 250 g ai/ha,0
same,"Plant response rating, Sedge, Umbrella",[6]; 1000 g ai/ha,0
same,"Plant response rating, Foxtail, Giant",[7]; [13],80
same,"Plant response rating, Foxtail, Giant",[7]; [14],30
same,"Foxtail, Giant plant response rating (0 to 100 scale, 0 is no effect, 100 is complete control)","[7]; Postemergence, 500 g ai/ha",70
same,"Plant response rating, Foxtail, Giant",[7]; [15],90
same,"Plant response rating, Barnyardgrass",[8]; 250 g ai/ha,30
same,"Plant response rating, Barnyardgrass",[8]; 1000 g ai/ha,70
same,"Plant response rating, Pigweed",[9]; [13],0
same,"Plant response rating, Pigweed",[9]; [14],0
same,"Pigweed plant response rating (0 to 100 scale, 0 is no effect, 100 is complete control)","[9]; Postemergence, 500 g ai/ha",0
same,"Plant response rating, Pigweed",[9]; [15],0
same,"Plant response rating, Crabgrass, Large",[10]; [13],90
same,"Plant response rating, Crabgrass, Large",[10]; [14],80
same,"Crabgrass, Large plant response rating (0 to 100 scale, 0 is no effect, 100 is complete control)","[10]; Postemergence, 500 g ai/ha",80
same,"Plant response rating, Crabgrass, Large",[10]; [15],90
same,"Plant response rating, Velvetleaf",[11]; [13],0
same,"Plant response rating, Velvetleaf",[11]; [14],0
same,"Velvetleaf plant response rating (0 to 100 scale, 0 is no effect, 100 is complete control)","[11]; Postemergence, 500 g ai/ha",0
same,"Plant response rating, Velvetleaf",[11]; [15],0
same,"Plant response rating, Ducksalad",[12]; 250 g ai/ha,35
same,"Plant response rating, Ducksalad",[12]; 1000 g ai/ha,100
Cc1cccc(NC(=O)C2C(=O)NCC2c2ccc(F)c(F)c2)c1 (stereo not shown) [Compound 56],"Plant response rating, Wheat",[1]; [16],0
same,"Plant response rating, Wheat",[1]; [17],0
same,Wheat plant response rating,[1]; [18],0
same,"Plant response rating, Wheat",[1]; [19],0
same,"Plant response rating, Barnyardgrass",[2]; [16],0
same,"Plant response rating, Barnyardgrass",[2]; [17],50
same,Barnyardgrass plant response rating,[2]; [18],0
same,"Plant response rating, Barnyardgrass","[2]; preemergence, 500 g ai/ha, 0 to 100 scale (0 no effect, 100 complete control)",40
same,"Plant response rating, Morningglory",[3]; [16],0
same,"Plant response rating, Morningglory",[3]; [17],0
same,Morningglory plant response rating,[3]; [18],0
same,"Plant response rating, Morningglory",[3]; [19],0
same,"Plant response rating, Corn",[4]; [16],0
same,"Plant response rating, Corn",[4]; [17],0
same,Corn plant response rating,[4]; [18],0
same,"Plant response rating, Corn",[4]; [19],0
same,"Plant response rating, Rice",[5]; 250 g ai/ha,0
same,"Plant response rating, Sedge, Umbrella",[6]; 250 g ai/ha,0
same,"Plant response rating, Foxtail, Giant",[7]; [16],20
same,"Plant response rating, Foxtail, Giant",[7]; [17],60
same,"Foxtail, Giant plant response rating",[7]; [18],20
same,"Plant response rating, Foxtail, Giant",[7]; [19],50
same,"Plant response rating, Barnyardgrass",[8]; 250 g ai/ha,0
same,"Plant response rating, Pigweed",[9]; [16],0
same,"Plant response rating, Pigweed",[9]; [17],0
same,Pigweed plant response rating,[9]; [18],0
same,"Plant response rating, Pigweed",[9]; [19],0
same,"Plant response rating, Crabgrass, Large",[10]; [16],50
same,"Plant response rating, Crabgrass, Large",[10]; [17],80
same,"Crabgrass, Large plant response rating",[10]; [18],60
same,"Plant response rating, Crabgrass, Large",[10]; [19],90
same,"Plant response rating, Velvetleaf",[11]; [16],0
same,"Plant response rating, Velvetleaf",[11]; [17],0
same,Velvetleaf plant response rating,[11]; [18],0
same,"Plant response rating, Velvetleaf",[11]; [19],0
same,"Plant response rating, Ducksalad",[12]; 250 g ai/ha,0
